The text below walks through data of patent publication US9163012B2, “Carbamate and urea inhibitors of 11β-hydroxysteroid dehydrogenase 1” (Vitae Pharmaceuticals, Inc., priority 2009, dated 2015).

“And” between values parts separate entries of the source, which are not always exact repeats. Equal values may be shown once. Read-outs that look alike come from different tables or passages of the source.

Usually inhibition stands for the drop in the measured response relative to a control, in per cent. One may read the IC50 as the midpoint of a concentration-inhibition curve.

In the assay the target is 11β-HSD1 (Homo sapiens (Human), UniProt P28845). Description: Biological Test Example 1: inhibition of a microsomal preparation of 11β-HSD1 (SPA). Type of assay: biochemical. The method, then:
All reactions were carried out at rt in 96 well clear flexible PET Microbeta plates (PerkinElmer). […] After a 10 minute pre-incubation, 50 μL of enzyme solution containing microsomes isolated from CHO cells overexpressing human 11-HSD1 (10-20 μg/ml of total protein) was added, and the plates were incubated for 90 minutes at rt. The reaction was stopped by adding 50 μl of the SPA beads suspension containing 10 μM […], 5 mg/ml protein A coated YSi SPA beads (GE Healthcare) and 3.3 μg/ml of anti-cortisol antibody (East Coast Biologics) in Superblock buffer (Bio-Rad). The plates were shaken for 120 minutes at rt, and the SPA signal corresponding to [^3H]cortisol was measured on a Microbeta plate reader.

[1] abbreviates: Biological Test Example 1, microsomes from CHO cells overexpressing human 11β-HSD1, read-out: IC50 Range.
[2] abbreviates: Biological Test Example 1, read-out: IC50.
[3] abbreviates: read-out: Average % inhibition at 100 nM, Biological Test Example 1, 100 nM compound.

Chain of 11β-HSD1 (P28845 whole entry): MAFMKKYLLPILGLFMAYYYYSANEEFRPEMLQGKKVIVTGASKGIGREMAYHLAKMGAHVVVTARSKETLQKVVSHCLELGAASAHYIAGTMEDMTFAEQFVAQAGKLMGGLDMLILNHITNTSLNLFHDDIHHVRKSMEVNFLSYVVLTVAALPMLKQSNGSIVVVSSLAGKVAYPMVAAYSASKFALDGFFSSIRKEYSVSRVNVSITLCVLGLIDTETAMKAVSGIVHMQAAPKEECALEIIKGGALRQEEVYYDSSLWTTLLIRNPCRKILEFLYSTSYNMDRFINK

`O=C(O)c1ccc(C2CCCN(C(=O)OC3C4CC5CC(C4)CC3C5)C2)cc1` (stereo not shown) [EXAMPLE 18, 4-(1-(2-adamantyloxycarbonyl)piperidin-3-yl)benzoic acid]: the inhibition at 0.111 µM (Biological Test Example 1, 111 nM compound, read-out: Average % inhibition at 111 nM) stood at 82.2%. Further, the IC50 runs as follows: under setting [1], below 100 nM; under setting [2], 27.8 nM.
As to `NC(=O)[C@]12CC3CC(C1)[C@@H](OC(=O)N1CCCC1c1ccccn1)C(C3)C2` (stereo partly drawn) [EXAMPLE 19, trans-1-carbamoyl-4-adamantyl 2-(pyridin-2-yl)pyrrolidine-1-carboxylate], the IC50 under setting [1] was below 100 nM and the IC50 under setting [2] was 6.74 nM. In addition, the inhibition at 0.1 µM (read-out: Average % inhibition at 100 nM) was found to be 93.2%.
As for `O=C(OC1C2CC3CC1CC(O)(C3)C2)N1CCC(c2ccncc2)C1` (stereo not shown) [EXAMPLE 21, 1-hydroxy-4-adamantyl 3-(pyridin-4-yl)pyrrolidine-1-carboxylate], the IC50 was below 100 nM under setting [1] and 20.8 nM under setting [2]. Also, under setting [3], the inhibition at 0.1 µM was determined as 81.4%.
`O=C(OC1C2CC3CC1CC(O)(C3)C2)N1CCC(c2cc[n+]([O-])cc2)C1` (stereo not shown) [EXAMPLE 22, 4-(1-((1-hydroxy-4-adamantyloxy)carbonyl)pyrrolidin-3-yl)pyridine 1-oxide]: the IC50 by setting is: under setting [1], above 100 nM; under setting [2], 100 nM. Moreover, the inhibition at 0.1 µM under setting [3] stood at 3.7%.
For `Cc1noc(C2CCN(C(=O)O[C@H]3C4CC5CC3C[C@](C(N)=O)(C5)C4)C2)n1` (stereo partly drawn) [EXAMPLE 23, trans-1-carbamoyl-4-adamantyl 3-(3-methyl-1,2,4-oxadiazol-5-yl)pyrrolidine-1-carboxylate], the IC50 is below 100 nM under setting [1] and 17.6 nM under setting [2]. Under setting [3], the inhibition at 0.1 µM is 79.3%.
With `Cc1nnc(C2CCCN(C(=O)OC3C4CC5CC3CC(O)(C5)C4)C2)o1` (stereo not shown) [EXAMPLE 25, 1-hydroxy-4-adamantyl 3-(5-methyl-1,3,4-oxadiazol-2-yl)piperidine-1-carboxylate], the IC50 was below 100 nM under setting [1] and 39.5 nM under setting [2]. In addition, the inhibition at 0.1 µM under setting [3] was found to be 69.9%.
The like results for `Cn1c(=O)n([C@@H]2CCN(C(=O)O[C@H]3C4CC5CC3C[C@](C(N)=O)(C5)C4)C2)c2ncc(Cl)cc21` [EXAMPLE 29, (R) (trans-1-carbamoyl-4-adamantyl) 3-(6-chloro-1-methyl-2-oxo-1H-imidazo[4,5-b]pyridin-3(2H)-yl)pyrrolidine-1-carboxylate] were, in that order, below 100 nM, 1 nM and 99.2%.
Under “Biological Test Example 1, Dose = 63 nM”, `O=C(OC1C2CC3CC(C2)CC1C3)N1CCC(CO)(c2ccccc2)CC1` (stereo not shown) [EXAMPLE 30, 2-adamantyl 4-(hydroxymethyl)-4-phenylpiperidine-1-carboxylate] returned an inhibition at 0.063 µM of 80.1%. Further, the IC50 runs as follows: under setting [1], below 100 nM; under setting [2], 13.2 nM and 4.44 nM. Also, the inhibition at 0.1 µM under setting [3] stood at 87.4%.
As to `Cn1c(C2CCN(C(=O)O[C@H]3C4CC5CC3C[C@](C(N)=O)(C5)C4)C2)nc2ccccc21` (stereo partly drawn) [EXAMPLE 31, (trans-1-carbamoyl-4-adamantyl) 3-(1-methyl-1H-benzo[d]imidazol-2-yl)pyrrolidine-1-carboxylate], the IC50 is, setting by setting: under setting [1], below 100 nM; under setting [2], 91.7 nM. The inhibition at 0.1 µM under setting [3] worked out at 44.1%.
In the same order, the values of `Cn1c(C2CCCN2C(=O)OC2C3CC4CC2CC(C(N)=O)(C4)C3)nc2ccccc21` (stereo not shown) [EXAMPLE 32, (1-carbamoyl-4-adamantyl) 2-(1-methyl-1H-benzo[d]imidazol-2-yl)pyrrolidine-1-carboxylate] are below 100 nM, 1.08 nM and 94.7%.
In the same order, the values of `O=C(OC1C2CC3CC(C2)CC1C3)N1CCC(c2ncc(Cl)cn2)C1` (stereo not shown) [EXAMPLE 34, 2-adamantyl 3-(5-chloropyrimidin-2-yl)pyrrolidine-1-carboxylate] are below 100 nM, 0.52 nM and 96.8%.
The like results for `NC(=O)[C@]12CC3CC(C1)[C@@H](OC(=O)N1CCCC1c1ncc(Cl)cn1)C(C3)C2` (stereo partly shown) [EXAMPLE 45, 1-carbamoyl-4-adamantyl 2-(5-chloropyrimidin-2-yl)pyrrolidine-1-carboxylate] were, in that order, below 100 nM, 13.5 nM and 87.5%.
`CC(C)(O)CC1(c2ccccc2)CCN(C(=O)O[C@H]2C3CC4CC2C[C@](C(N)=O)(C4)C3)C1` (stereo partly drawn) [EXAMPLE 49, trans-1-carbamoyl-4-adamantyl 3-(2-hydroxy-2-methylpropyl)-3-phenylpyrrolidine-1-carboxylate]: the IC50 under setting [1] is below 100 nM and the IC50 under setting [2] turned out to be 2.07 nM. The inhibition at 0.1 µM under setting [3] was 91.6%.
The like results for `O=C(OC1C2CC3CC(C2)CC1C3)N1CCC[C@@H]1c1nc(-c2ccncc2)cs1` (stereo partly drawn) [EXAMPLE 50, (R)-2-adamantyl 2-(4-(pyridin-4-yl)thiazol-2-yl)pyrrolidine-1-carboxylate] were, in that order, below 100 nM, 0.91 nM and 98.2%.
The like results for `O=C(OC1C2CC3CC(C2)CC1C3)N1CCC(c2nc(-c3ccncc3)cs2)C1` (stereo not shown) [EXAMPLE 51, 2-adamantyl 3-(4-(pyridin-4-yl)thiazol-2-yl)pyrrolidine-1-carboxylate] were, in that order, below 100 nM, 0.7 nM and 96.8%.
In the same order, the values of `O=C(OC1C2CC3CC(C2)CC1C3)N1CCC[C@@H]1c1nc(-c2cc[n+]([O-])cc2)cs1` (stereo partly drawn) [EXAMPLE 52, (R)-4-(2-(1-((2-adamantyloxy)carbonyl)pyrrolidin-2-yl)thiazol-4-yl)pyridine 1-oxide] are below 100 nM, 1.19 nM and 95.1%.
On to `Cn1ccc(-c2csc([C@H]3CCCN3C(=O)OC3C4CC5CC(C4)CC3C5)n2)cc1=O` (stereo partly drawn) [EXAMPLE 53, (R)-2-adamantyl 2-(4-(1-methyl-2-oxo-1,2-dihydropyridin-4-yl)thiazol-2-yl)pyrrolidine-1-carboxylate], for which the IC50 was below 100 nM under setting [1] and 0.47 nM under setting [2]. Further, the inhibition at 0.1 µM under setting [3] amounted to 95.8%.
As for `NC(=O)[C@]12CC3CC(C1)[C@@H](OC(=O)N1CCC[C@@H]1c1nc(-c4cc[nH]c(=O)c4)cs1)C(C3)C2` [EXAMPLE 54, (R)-trans-1-carbamoyl-4-adamantyl 2-(4-(2-oxo-1,2-dihydropyridin-4-yl)thiazol-2-yl)pyrrolidine-1-carboxylate], the IC50 is, setting by setting: under setting [1], below 100 nM; under setting [2], 2.67 nM. The inhibition at 0.1 µM under setting [3] was 95.4%.
As to `Cn1ccc(-c2csc([C@H]3CCCN3C(=O)O[C@H]3C4CC5CC3C[C@](C(N)=O)(C5)C4)n2)cc1=O` [EXAMPLE 55, (R)-trans-1-carbamoyl-4-adamantyl 2-(4-(1-methyl-2-oxo-1,2-dihydropyridin-4-yl)thiazol-2-yl)pyrrolidine-1-carboxylate], the IC50 reads like this: under setting [1], below 100 nM; under setting [2], 2.07 nM. Further, the inhibition at 0.1 µM under setting [3] is 93.1%.
In the same order, the values of `Cn1ccc(-c2csc(C3CCN(C(=O)O[C@H]4C5CC6CC4C[C@](C(N)=O)(C6)C5)C3)n2)cc1=O` (stereo partly drawn) [EXAMPLE 56, trans-1-carbamoyl-4-adamantyl 3-(4-(1-methyl-2-oxo-1,2-dihydropyridin-4-yl)thiazol-2-yl)pyrrolidine-1-carboxylate] are below 100 nM, 1.95 nM and 96.7%.
